Results reported in patent publication US20230086702A1, “SUBSTITUTED 2-AMINO-PYRAZOLYL-[1,2,4]TRIAZOLO[1,5A]PYRIDINE DERIVATIVES AND USE THEREOF” (The Johns Hopkins University, priority 2019, published 2023).

Assays:
DLK = biological target: T1, DLK (Homo sapiens, UniProt Q12852); assay: DLK biochemical assay (TR-FRET, MKK7 phosphorylation)
T1 construct: 10 nM DLK, catalytic domain, Carna Biosiences; purchased Carna Biosciences ('Carna Biosiences' [sic])
T1 sequence (Q12852 125-366 limits assumed): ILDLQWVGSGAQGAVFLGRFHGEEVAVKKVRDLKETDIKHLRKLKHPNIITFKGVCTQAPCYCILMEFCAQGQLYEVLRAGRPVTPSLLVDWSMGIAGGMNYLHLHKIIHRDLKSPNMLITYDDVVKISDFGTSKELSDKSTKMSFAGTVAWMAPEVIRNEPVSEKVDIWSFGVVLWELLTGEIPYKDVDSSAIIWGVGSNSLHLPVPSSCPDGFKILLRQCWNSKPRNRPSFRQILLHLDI
Summary of the method: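 DLK catalytic domain (10 nM) phosphorylates His-MKK7 (15 nM) at 60 μM ATP for 90 min at RT in pH 7.5 Hepes buffer (final concentrations). Phospho-T275/S277 is detected by TR-FRET (Eu anti-phospho donor, XL665 anti-His acceptor) after 16 h at 37° C (1536 format) or 4° C (384 format).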

LZK = biological target: T2, LZK (Homo sapiens, UniProt O43283); assay: LZK biochemical assay (TR-FRET, MKK7 phosphorylation)
T2 construct: 10 nM LZK, catalytic domain, Carna Biosiences in assay buffer; purchased Carna Biosciences ('Carna Biosiences' [sic])
T2 sequence (O43283 168-409 limits assumed): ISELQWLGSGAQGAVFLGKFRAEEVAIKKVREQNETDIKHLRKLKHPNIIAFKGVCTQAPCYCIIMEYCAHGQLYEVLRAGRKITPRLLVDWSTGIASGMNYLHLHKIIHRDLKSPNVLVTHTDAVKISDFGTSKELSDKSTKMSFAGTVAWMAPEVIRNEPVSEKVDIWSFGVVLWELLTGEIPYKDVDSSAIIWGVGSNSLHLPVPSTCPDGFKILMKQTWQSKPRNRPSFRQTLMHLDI
Summary of the method: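 LZK catalytic domain (10 nM) phosphorylates His-MKK7 (15 nM) with 15 µM ATP, all final, for 90 min at RT in HEPES buffer pH 7.5 with MgCl2. Phospho-T275/S277 detected by TR-FRET (Eu anti-phospho donor, XL665 anti-His acceptor) after 16 h at 32 °C in EDTA stop buffer. Inhibition lowers the 665/Eu ratio.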

IC50 (DLK) [nM] | IC50 (LZK) [nM] | Structure (SMILES)
36 | 86 | CCC(c1ccc(C(F)F)nc1)n1cc(-c2cc(-c3ccc(C4CC4)nc3)n3nc(N)nc3c2)cn1 (single isomer, unassigned) [II-68, 5-(6-Cyclopropylpyridin-3-yl)-7-(1-{1-[6-(difluoromethyl)pyridin-3-yl]propyl}-1H-pyrazol-4-yl)[1,2,4]triazolo[1,5-a]pyridin-2-amine]
4.8 | 9.4 | CCC(c1ccc(C(F)F)nc1)n1cc(-c2cc(-c3ccc(C4CC4)nc3)n3nc(N)nc3c2)cn1 (single isomer, unassigned) [II-69, 5-(6-Cyclopropylpyridin-3-yl)-7-(1-{1-[6-(difluoromethyl)pyridin-3-yl]propyl}-1H-pyrazol-4-yl)[1,2,4]triazolo[1,5-a]pyridin-2-amine]
160 | 74 | CC(C)C(c1ccc(C(F)(F)F)nc1)n1cc(-c2cc(-c3ccc(C(F)F)nc3)n3nc(N)nc3c2)cn1 (single isomer, unassigned) [II-71, 5-[6-(Difluoromethyl)pyridin-3-yl]-7-(1-{2-methyl-1-[6-(trifluoromethyl)pyridin-3-yl]propyl}-1H-pyrazol-4-yl)[1,2,4]triazolo[1,5-a]pyridin-2-amine]
16 | 17 | CC(C)C(c1ccc(C(F)(F)F)nc1)n1cc(-c2cc(-c3ccc(C(F)F)nc3)n3nc(N)nc3c2)cn1 (single isomer, unassigned) [II-72, 5-[6-(Difluoromethyl)pyridin-3-yl]-7-(1-{2-methyl-1-[6-(trifluoromethyl)pyridin-3-yl]propyl}-1H-pyrazol-4-yl)[1,2,4]triazolo[1,5-a]pyridin-2-amine]
510 | 170 | CC(C)C(c1ccc(C(F)(F)F)nc1)n1cc(-c2cc(-c3ccc(C4CC(F)(F)C4)nc3)n3nc(N)nc3c2)cn1 (single isomer, unassigned) [II-74, 5-[6-(3,3-Difluorocyclobutyl)pyridin-3-yl]-7-(1-{2-methyl-1-[6-(trifluoromethyl)pyridin-3-yl]propyl}-1H-pyrazol-4-yl)[1,2,4]triazolo[1,5-a]pyridin-2-amine]
27 | 15 | CC(C)C(c1ccc(C(F)(F)F)nc1)n1cc(-c2cc(-c3ccc(C4CC(F)(F)C4)nc3)n3nc(N)nc3c2)cn1 (single isomer, unassigned) [II-75, 5-[6-(3,3-Difluorocyclobutyl)pyridin-3-yl]-7-(1-{2-methyl-1-[6-(trifluoromethyl)pyridin-3-yl]propyl}-1H-pyrazol-4-yl)[1,2,4]triazolo[1,5-a]pyridin-2-amine]
160 | 61 | Nc1nc2cc(-c3cnn(C(c4ccc(C(F)F)nc4)C4CCOCC4)c3)cc(-c3ccc(C(F)(F)F)nc3)n2n1 (single isomer, unassigned) [II-77, 7-(1-{[6-(Difluoromethyl)pyridin-3-yl](tetrahydro-2H-pyran-4-yl)methyl}-1H-pyrazol-4-yl)-5-[6-(trifluoromethyl)pyridin-3-yl][1,2,4]triazolo[1,5-a]pyridin-2-amine]
5.2 | 5.3 | Nc1nc2cc(-c3cnn(C(c4ccc(C(F)F)nc4)C4CCOCC4)c3)cc(-c3ccc(C(F)(F)F)nc3)n2n1 (single isomer, unassigned) [II-78, 7-(1-{[6-(Difluoromethyl)pyridin-3-yl](tetrahydro-2H-pyran-4-yl)methyl}-1H-pyrazol-4-yl)-5-[6-(trifluoromethyl)pyridin-3-yl][1,2,4]triazolo[1,5-a]pyridin-2-amine]
4 | 2.4 | CC(C)C(c1ccc(C(F)(F)F)nc1)n1cc(-c2cc(-c3ccc(C4(O)CCC4)nc3)n3nc(N)nc3c2)cn1 (single isomer, unassigned) [II-81, 1-{5-[2-Amino-7-(1-{2-methyl-1-[6-(trifluoromethyl)pyridin-3-yl]propyl}-1H-pyrazol-4-yl)[1,2,4]triazolo[1,5-a]pyridin-5-yl]pyridin-2-yl}cyclobutan-1-ol]
42 | 42 | CC(C)C(c1ccc(C(F)(F)F)nc1)n1cc(-c2cc(-c3ccc(C4(O)CCC4)nc3)n3nc(N)nc3c2)cn1 (single isomer, unassigned) [II-82, 1-{5-[2-Amino-7-(1-{2-methyl-1-[6-(trifluoromethyl)pyridin-3-yl]propyl}-1H-pyrazol-4-yl)[1,2,4]triazolo[1,5-a]pyridin-5-yl]pyridin-2-yl}cyclobutan-1-ol]
5.6 | 40 | CC[C@@H](c1ccccc1)n1cc(-c2cc(-c3cnn(C(C)C(F)(F)F)c3)c3nc(N)nn3c2)cn1 (single isomer, unassigned) [II-95]
17 | 60 | CC[C@@H](c1ccccc1)n1cc(-c2cc(-c3cnn(C(C)C(F)(F)F)c3)c3nc(N)nn3c2)cn1 (single isomer, unassigned) [II-96]
58 | 500 | CCC(c1ccc(C(F)(F)F)cc1)n1cc(-c2cc(-c3cnn(C)c3)c3nc(N)nn3c2)cn1 (single isomer, unassigned) [II-100, 8-(1-Methyl-1H-pyrazol-4-yl)-6-(1-{1-[4-(trifluoromethyl)phenyl]propyl}-1H-pyrazol-4-yl)[1,2,4]triazolo[1,5-a]pyridin-2-amine]
6.8 | 110 | CCC(c1ccc(C(F)(F)F)cc1)n1cc(-c2cc(-c3cnn(C)c3)c3nc(N)nn3c2)cn1 (single isomer, unassigned) [II-101, 8-(1-Methyl-1H-pyrazol-4-yl)-6-(1-{1-[4-(trifluoromethyl)phenyl]propyl}-1H-pyrazol-4-yl)[1,2,4]triazolo[1,5-a]pyridin-2-amine]
64 | 160 | CCC(c1ccc(N2CCOCC2)cc1)n1cc(-c2cc(-c3cnn(CC(F)(F)F)c3)c3nc(N)nn3c2)cn1 (single isomer, unassigned) [II-103, 6-(1-{1-[4-(Morpholin-4-yl)phenyl]propyl}-1H-pyrazol-4-yl)-8-[1-(2,2,2-trifluoroethyl)-1H-pyrazol-4-yl][1,2,4]triazolo[1,5-a]pyridin-2-amine]
6 | 51 | CCC(c1ccc(N2CCOCC2)cc1)n1cc(-c2cc(-c3cnn(CC(F)(F)F)c3)c3nc(N)nn3c2)cn1 (single isomer, unassigned) [II-104, 6-(1-{1-[4-(Morpholin-4-yl)phenyl]propyl}-1H-pyrazol-4-yl)-8-[1-(2,2,2-trifluoroethyl)-1H-pyrazol-4-yl][1,2,4]triazolo[1,5-a]pyridin-2-amine]
40 | 47 | CCC(c1ccc(C(F)F)nc1)n1cc(-c2cc(-c3cnn(CC(F)(F)F)c3)c3nc(N)nn3c2)cn1 (single isomer, unassigned) [II-106, 6-(1-{1-[6-(Difluoromethyl)pyridin-3-yl]propyl}-1H-pyrazol-4-yl)-8-[1-(2,2,2-trifluoroethyl)-1H-pyrazol-4-yl][1,2,4]triazolo[1,5-a]pyridin-2-amine]
4 | 10 | CCC(c1ccc(C(F)F)nc1)n1cc(-c2cc(-c3cnn(CC(F)(F)F)c3)c3nc(N)nn3c2)cn1 (single isomer, unassigned) [II-107, 6-(1-{1-[6-(Difluoromethyl)pyridin-3-yl]propyl}-1H-pyrazol-4-yl)-8-[1-(2,2,2-trifluoroethyl)-1H-pyrazol-4-yl][1,2,4]triazolo[1,5-a]pyridin-2-amine]
